These results are taken from patent US9108921B2, “Therapeutic compounds and compositions” (AGIOS PHARMACEUTICALS, INC, priority 2014, dated 2015).

The structures appear in SMILES notation. Bounds are passed on as bounds.

The target of one test is PKR R532W (Homo sapiens, UniProt P30613, R532W). The test can be described thus: PKR Mutant Assay, AC50 against PKR R532W. Type of test: biochemical. The conditions noted are these: mutant PKR R532W enzyme. In a few lines:
(§1)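 Human PKR (WT or mutant, 80-400 ng/well) in 50 mM Tris pH 7.5, 100 mM KCl, 5 mM MgCl2, 1 mM DTT, 0.03% BSA with PEP 0.1-0.5 mM, NADH 180 uM and LDH, preincubated 60 min at room temperature with compound (11-point 3-fold series from 100 μM final, 1% DMSO). ADP 0.22-1.65 mM started reaction; A340 followed.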

In test [1] the target is T1, PKR WT (Homo sapiens, UniProt P30613). The test can be described thus: PKR WT enzymatic AC50 assay. Type of test: biochemical. To be noted: wild type PKR. In a few lines: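 Steps: compound added to wells, then reaction mix lacking ADP; 60 min room-temperature hold; ADP (0.22-1.65 mM) added to start; A340 monitored at room temperature via PEP/LDH/NADH coupling. Top final compound concentration 100 μM, 3-fold dilutions over 11 points.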
T1 sequence (P30613 whole entry): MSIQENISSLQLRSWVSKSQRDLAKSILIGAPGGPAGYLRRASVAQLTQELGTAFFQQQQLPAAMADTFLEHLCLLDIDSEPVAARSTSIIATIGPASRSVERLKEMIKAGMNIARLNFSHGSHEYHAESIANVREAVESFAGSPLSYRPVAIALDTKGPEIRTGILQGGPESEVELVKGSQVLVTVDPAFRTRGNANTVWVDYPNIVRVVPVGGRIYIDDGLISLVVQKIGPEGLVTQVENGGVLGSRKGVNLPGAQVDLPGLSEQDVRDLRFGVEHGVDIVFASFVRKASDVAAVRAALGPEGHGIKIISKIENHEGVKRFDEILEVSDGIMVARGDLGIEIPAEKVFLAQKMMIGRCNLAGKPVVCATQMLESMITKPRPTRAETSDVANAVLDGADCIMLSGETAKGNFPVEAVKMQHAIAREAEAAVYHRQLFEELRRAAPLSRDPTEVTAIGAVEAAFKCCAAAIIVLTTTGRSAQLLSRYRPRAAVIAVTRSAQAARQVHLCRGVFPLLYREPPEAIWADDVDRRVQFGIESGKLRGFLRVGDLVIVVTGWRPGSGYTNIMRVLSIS

The next test addresses PKR R510Q (Homo sapiens, UniProt P30613, R510Q). The test can be described thus: PKR Mutant Assay, AC50 against PKR R510Q. Type of test: biochemical. The conditions noted are these: mutant PKR R510Q enzyme. The method in brief:
as §1

Test [2] has as its target T1, PKR WT. The test can be described thus: PKR WT cell based AC50 assay. The conditions noted are these: wild type PKR.

Chain of PKR R510Q (P30613 whole entry R510Q): as the sequence (P30613 whole entry) above, with R510Q counted along it
Chain of PKR R532W (P30613 whole entry R532W): as the sequence (P30613 whole entry) above, with R532W counted along it

One may read the AC50 as the midpoint of the concentration-response curve, whichever way the signal moves. Low values mean greater potency, high ones weaker potency. For the compound `CC(C)CC1(O)CCN(C(=O)c2ccc(NS(=O)(=O)c3cccc4nccnc34)cc2)CC1` [Compound 160, N-(4-(4-hydroxy-4-isobutylpiperidine-1-carbonyl)phenyl)quinoxaline-5-sulfonamide], the AC50 at PKR R532W, on PKR WT [1], on PKR R510Q and at PKR WT [2] was < 100 nM in each case.
Consider `O=C(c1ccc(NS(=O)(=O)c2cccc3cccnc23)cc1)N1CCC(O)(c2ccncc2Cl)CC1` [Compound 161, N-(4-(4-(3-chloropyridin-4-yl)-4-hydroxypiperidine-1-carbonyl)phenyl)quinoline-8-sulfonamide], for which the AC50 is < 100 nM at PKR R532W, < 100 nM at PKR WT [1], 101 to 1000 nM at PKR R510Q and < 100 nM at PKR WT [2].
`O=C(c1ccc(NS(=O)(=O)c2cccc3nccnc23)cc1)N1CCC(O)(c2ccccc2Cl)CC1` [Compound 162, N-(4-(4-(2-chlorophenyl)-4-hydroxypiperidine-1-carbonyl)phenyl)quinoxaline-5-sulfonamide]: the AC50 on PKR R532W was < 100 nM; at PKR WT [1], < 100 nM; at PKR R510Q it was 101 to 1000 nM; on PKR WT [2], < 100 nM.
Consider `O=C(c1ccc(NS(=O)(=O)c2cccc3cccnc23)c(F)c1)N1CCC(O)(Cc2ccccc2)CC1` [Compound 163, N-(4-(4-benzyl-4-hydroxypiperidine-1-carbonyl)-2-fluorophenyl)quinoline-8-sulfonamide], for which the AC50 at PKR R532W is < 100 nM; at PKR WT [1], < 100 nM; on PKR R510Q it was 101 to 1000 nM; at PKR WT [2], < 100 nM.
Consider `O=C(c1ccc(NS(=O)(=O)c2cccc3cccnc23)cc1)N1CCC(O)(c2ncccc2C(F)(F)F)CC1` [Compound 164, N-(4-(4-hydroxy-4-(3-(trifluoromethyl)pyridin-2-yl)piperidine-1-carbonyl)phenyl)quinoline-8-sulfonamide], for which the AC50 on PKR R532W was < 100 nM; on PKR WT [1], < 100 nM; at PKR R510Q it was 101 to 1000 nM; at PKR WT [2], < 100 nM.
`O=C(c1ccc(NS(=O)(=O)c2cccc3cccnc23)cc1)N1CCC(O)(c2ccccc2F)CC1` [Compound 165, N-(4-(4-(2-fluorophenyl)-4-hydroxypiperidine-1-carbonyl)phenyl)quinoline-8-sulfonamide]: the AC50 on PKR R532W is < 100 nM; at PKR WT [1], < 100 nM; at PKR R510Q it was 101 to 1000 nM; on PKR WT [2], < 100 nM.
With `O=C(c1ccc(NS(=O)(=O)c2cccc3cccnc23)cc1)N1CCC(O)(c2cc(F)ccc2Cl)CC1` [Compound 166], the AC50 at PKR R532W is < 100 nM; at PKR WT [1], < 100 nM; at PKR R510Q it was 101 to 1000 nM; at PKR WT [2], < 100 nM.
For `CCCCC1(O)CCN(C(=O)c2ccc(NS(=O)(=O)c3cccc4cccnc34)cc2)CC1` [Compound 167, N-(4-(4-butyl-4-hydroxypiperidine-1-carbonyl)phenyl)quinoline-8-sulfonamide], the AC50 at PKR R532W, on PKR WT [1], at PKR R510Q and on PKR WT [2] was < 100 nM in each case.
As to `O=C(c1ccc(NS(=O)(=O)c2cccc3cccnc23)cc1)N1CCC(O)(Cc2cccnc2F)CC1` [Compound 168, N-(4-(4-((2-fluoropyridin-3-yl)methyl)-4-hydroxypiperidine-1-carbonyl)phenyl)quinoline-8-sulfonamide], the AC50 at PKR R532W is < 100 nM; at PKR WT [1], < 100 nM; on PKR R510Q it was 101 to 1000 nM; on PKR WT [2] it was < 100 nM.
On to `O=C(c1ccc(NS(=O)(=O)c2cccc3cccnc23)cc1)N1CCC(O)(Cc2cccc(F)c2F)CC1` [Compound 169, N-(4-(4-(2,3-difluorobenzyl)-4-hydroxypiperidine-1-carbonyl)phenyl)quinoline-8-sulfonamide], for which the AC50 at PKR R532W was < 100 nM; at PKR WT [1], < 100 nM; at PKR R510Q, 101 to 1000 nM; on PKR WT [2], < 100 nM.
For `COc1cc(NS(=O)(=O)c2cccc3cccnc23)ccc1C(=O)N1CCC(O)(c2ccccc2Cl)CC1` [Compound 170, N-(4-(4-(2-chlorophenyl)-4-hydroxypiperidine-1-carbonyl)-3-methoxyphenyl)quinoline-8-sulfonamide], the AC50 is < 100 nM on PKR R532W, < 100 nM on PKR WT [1], 101 to 1000 nM on PKR R510Q and 101 to 1000 nM at PKR WT [2].
Regarding `Cc1nc(C2(O)CCN(C(=O)c3ccc(NS(=O)(=O)c4cccc5cccnc45)cc3)CC2)ccc1F` [Compound 171, N-(4-(4-(5-fluoro-6-methylpyridin-2-yl)-4-hydroxypiperidine-1-carbonyl)phenyl)quinoline-8-sulfonamide], the AC50 at PKR R532W was < 100 nM; at PKR WT [1], < 100 nM; on PKR R510Q it was 101 to 1000 nM; on PKR WT [2], 101 to 1000 nM.
Regarding `CC(C)CC1(CO)CCN(C(=O)c2ccc(NS(=O)(=O)c3cccc4cccnc34)cc2)CC1` [Compound 172, N-(4-(4-(hydroxymethyl)-4-isobutylpiperidine-1-carbonyl)phenyl)quinoline-8-sulfonamide], the AC50 on PKR R532W, on PKR WT [1], on PKR R510Q and at PKR WT [2] was < 100 nM throughout.
On to `CC(C)CC1(O)CCN(C(=O)c2ccc(NS(=O)(=O)c3cccc4scnc34)cc2)CC1` [Compound 173, N-(4-(4-hydroxy-4-isobutylpiperidine-1-carbonyl)phenyl)benzo[d]thiazole-4-sulfonamide], for which the AC50 at PKR R532W, on PKR WT [1], on PKR R510Q and at PKR WT [2] was < 100 nM each time.
As for `O=C(c1ccc(NS(=O)(=O)c2cccc3cccnc23)cc1)N1CCC(O)(c2cccc(C(F)(F)F)n2)CC1` [Compound 174, N-[4-[4-hydroxy-4-[6-(trifluoromethyl)pyridin-2-yl]piperidine-1-carbonyl]phenyl]quinoline-8-sulfonamide], the AC50 at PKR R532W was < 100 nM; on PKR WT [1], < 100 nM; at PKR R510Q, 101 to 1000 nM; at PKR WT [2], < 100 nM.
In the case of `Cc1cc(C(=O)N2CCC(O)(c3cccc(F)c3F)CC2)ccc1NS(=O)(=O)c1cccc2nccnc12` [Compound 175, N-(4-(4-(2,3-difluorophenyl)-4-hydroxypiperidine-1-carbonyl)-2-methylphenyl)quinoxaline-5-sulfonamide], the AC50 on PKR R532W is < 100 nM; at PKR WT [1], < 100 nM; on PKR R510Q, 101 to 1000 nM; at PKR WT [2], < 100 nM.
As to `O=C(c1ccc(NS(=O)(=O)c2cccc3cccnc23)cc1)N1CCC(O)(CC2CC2(F)F)CC1` (stereo not drawn) [Compound 176, N-(4-(4-((2,2-difluorocyclopropyl)methyl)-4-hydroxypiperidine-1-carbonyl)phenyl)quinoline-8-sulfonamide], the AC50 on PKR R532W is < 100 nM; at PKR WT [1] it was < 100 nM; at PKR R510Q, 101 to 1000 nM; on PKR WT [2], < 100 nM.
With `O=C(c1ccc(NS(=O)(=O)c2cccc3scnc23)cc1)N1CCC(O)(c2cccc(F)c2F)CC1` [Compound 178, N-(4-(4-(2,3-difluorophenyl)-4-hydroxypiperidine-1-carbonyl)phenyl)benzo[d]thiazole-4-sulfonamide], the AC50 on PKR R532W was < 100 nM; at PKR WT [1], < 100 nM; on PKR R510Q it was 101 to 1000 nM; at PKR WT [2], < 100 nM.
Turning to `O=C(c1ccc(NS(=O)(=O)c2ccc(F)c3cccnc23)cc1)N1CCC(O)(c2ccccc2Cl)CC1` [Compound 179, N-(4-(4-(2-chlorophenyl)-4-hydroxypiperidine-1-carbonyl)phenyl)-5-fluoroquinoline-8-sulfonamide], the AC50 at PKR R532W was < 100 nM; on PKR WT [1], < 100 nM; at PKR R510Q, 101 to 1000 nM; on PKR WT [2], < 100 nM.
Turning to `O=C(c1ccc(NS(=O)(=O)c2cccc3cccnc23)cc1)N1CCC(O)(c2cnsc2)CC1` [Compound 180], the AC50 at PKR R532W is < 100 nM; on PKR WT [1] it was < 100 nM; at PKR R510Q it was 101 to 1000 nM; at PKR WT [2], < 100 nM.
Take `CCCC1(O)CCN(C(=O)c2ccc(NS(=O)(=O)c3cccc4cccnc34)cc2)CC1` [Compound 183, N-(4-(4-hydroxy-4-propylpiperidine-1-carbonyl)phenyl)quinoline-8-sulfonamide]: the AC50 at PKR R532W was < 100 nM; on PKR WT [1] it was < 100 nM; on PKR R510Q, 101 to 1000 nM; at PKR WT [2], < 100 nM.
For `COc1ccccc1C1(O)CCN(C(=O)c2ccc(NS(=O)(=O)c3cccc4cccnc34)cc2)CC1` [Compound 184, N-(4-(4-hydroxy-4-(2-methoxyphenyl)piperidine-1-carbonyl)phenyl)quinoline-8-sulfonamide], the AC50 on PKR R532W is < 100 nM; at PKR WT [1] it was < 100 nM; at PKR R510Q, 101 to 1000 nM; at PKR WT [2] it was 101 to 1000 nM.
For `O=C(c1ccc(NS(=O)(=O)c2cccc3cccnc23)cc1)N1CCC(O)(Cc2cccnc2)CC1` [Compound 185, N-(4-(4-hydroxy-4-(pyridin-3-ylmethyl)piperidine-1-carbonyl)phenyl)quinoline-8-sulfonamide], the AC50 is < 100 nM on PKR R532W, < 100 nM at PKR WT [1], 101 to 1000 nM on PKR R510Q and 101 to 1000 nM at PKR WT [2].
In the case of `O=C(c1ccc(NS(=O)(=O)c2cccc3ccoc23)cc1)N1CCC(O)(c2ccccc2Cl)CC1` [Compound 186, N-(4-(4-(2-chlorophenyl)-4-hydroxypiperidine-1-carbonyl)phenyl)benzofuran-7-sulfonamide], the AC50 on PKR R532W is < 100 nM; on PKR WT [1], < 100 nM; at PKR R510Q, 101 to 1000 nM; on PKR WT [2], 101 to 1000 nM.
